# Test results taken from PMC10630888, “Nuclear ERK1/2 signaling potentiation enhances neuroprotection and cognition via Importinα1/KPNA2” (EMBO Molecular Medicine, 2023).
# “And” between values parts separate entries of the source, which are not always exact repeats. Equal entries are not always repeated.
# Experiments:
# [1] = system: S6 (Ser240/244) phosphorylation; test: Striatal pS6 (Ser240/244) immunofluorescence 1 h after single injection; type: in vivo, mouse; settings: single injection 20 mg/kg i.p., individual mice
# Description: Immunofluorescence was performed as described in Papale et al ([2016]). Briefly, 1 h after blocking in 5% normal goat serum, slices were incubated overnight at 4°C with the following primary antibodies: anti‐phospho (Ser10)‐acetylated (Lys14) histone H3 (1:1,000, Millipore), anti‐phospho‐S6 ribosomal protein (Ser235/236) (1:200, Cell Signaling Technology) anti‐phospho‐S6 ribosomal protein (Ser240/244) (1:200, Cell Signaling), cleaved caspase‐3 (1:200, Cell Signaling Technology), anti‐mutant Huntingtin (1:100, Developmental Studies Hybridoma Bank, University of Iowa, #MW8), and NeuN (1:1,000, Millipore). […]
# In ex‐vivo and in‐vivo immunofluorescence experiments, the number of p‐S6 or p‐AcH3 immunoreactive neurons among NeuN‐positive neurons was counted in 2–3 consecutive striatal sections per mouse in four fields per section. Caspase 3‐positive cells were quantified among NeuN‐positive neurons in each slide and expressed as percentage (ratio between caspase‐3‐positive cells and total NeuN‐positive neurons) for each field acquired through the slide. The number of cells showing mutant Huntingtin inclusions were expressed as a percentage of mutant Huntingtin‐positive cells among DAPI‐positive cells.
# [2] = system: p-ERK1/2 in DARPP-32+ neurons; test: p-ERK1/2 in DARPP-32+ iPSC-derived HD MSNs; type: cell-based, human; settings: for p-ERK1/2 in DARPP-32+ neurons (Fig 5 panel e): individual replicates
# Description: The human induced pluripotent stem cell line CS09iHD109‐n1 (herein referred to as Q109N1) was originally generated from a human fibroblast line ND39258 (RRID:CVCL_ZC78) with an expanded HTT allele initially containing 109 pure CAG trinucleotides, and the isogenic control lines used were derived by CRISPR gene‐edit to reduce the CAG repeat length to 20 repeats (Mattis et al, [2015]). IPSCS were cultured on hESC‐qualified Matrigel (Corning) in E8‐Flex medium (Thermo Fisher) and passaged with RelesR (Stem Cell Technologies) according to the manufacturer's instructions. For neural differentiation iPSCS were grown to 70% confluency and then treated with 10 μM Y‐27632 (Tocris) for 1 h before harvesting by dissociation to a single cell suspension using accutase (Sigma). IPSCs were replated onto fresh Matrigel‐coated plates at a split ratio of 1:2, in E8‐Flex medium containing 10 μM Y‐27632. After overnight culture, IPSCs at 80–90% confluency were washed with PBS pH 7.4 (Gibco) and then switched to neural induction medium (Advanced DMEM/F12 (1:1) supplemented with 2 mM GlutamaxTM (Gibco), 2% Neurobrew without vitamin A (Miltenyi), 10 μM SB431542, 1 μM LDN 193189 (both Stem Cell Technologies), and 1.5 μM IWR1 (Tocris)). Medium was changed daily until day 8, when cells were passaged 1:2 by cell dissociation with Accutase for 5 min at 37°C and replated on Matrigel® coated plates in LIA medium containing (Advanced DMEM/F12 (1:1) supplemented with 2 mM GlutamaxTM, 2% Neurobrew without vitamin A, 0.2 μM LDN 193189, 1.5 μM IWR1, and 20 ng/ml Activin A (Peprotech)). At day 16, cells were plated for neuronal differentiation according to (Telezhkin et al, [2016]). […]
# Images were acquired using a confocal microscope (Zeiss LSM710) under a 20× objective and analyzed with ImageJ software.
sequence,measurement,setting,value
"GRKKRRQRRRPPQGGGGGEPRRTEGVGPGVPGEVEMVKGQPFDV [RB5, six D-amino acids, acetylated N-terminus]",pS6 (Ser240/244) positive neurons in striatum,[1],no effect
same,p-ERK1/2 in DARPP-32+ neurons (Fig 5 panel e),[2]; CTR iPSC-derived MSNs,32.3403 and 42.5 and 40 and 34.7652 and 35.2993
same,p-ERK1/2 in DARPP-32+ neurons,"[2]; HD and isogenic control iPSC-derived MSNs, 50 μM, 30 min",upregulated
same,p-ERK1/2 in DARPP-32+ neurons (Fig 5 panel e),[2]; HD iPSC-derived MSNs,36.3889 and 24.1289 and 36.2319 and 31.1704 and 41.2043 and 24.6269
